Columns and labels:
FRα (KB) = target: T1, FRα (KB) (Homo sapiens, UniProt P15328); experiment: 3H-EC17 cell-based radioligand binding assay on KB cells; details: 2 h at 37° C.
T1 construct: endogenous in cells; host or cells: KB cells
Procedure: FIG. 10, Panel A: Kd values of ^3H-EC17 uptake by FR+ target cells after a 2 hour incubation at 37° C. (calculated from the numbers of molecules bound per cell). Panel B: Kd value of ^3H^−EC17 uptake by E2-CAR-T cells (˜24% EGFRt+, ˜95:5 CD8/CD4 ratio) after a 2 hour incubation at room temperate (calculated from total cell-associated radioactivity, DPM).
The bispecific affinities of EC17 CAM (a CAM is equivalent to a “bridge” or the “compound” in this application) were assessed using ^3H-EC17 in cell-based radioligand binding assays. […] The whole cell lysates were quantitated for the level of radioactivity and cellular protein content by standard Pierce BCA protein assay. The number of ^3H-EC17 molecules bound per cell was calculated to determine the dissociation constants (Kd) for FRα (KB) and FRβ (CHO-β) respectively (FIG. 10).
The EC17 has already been tested in the clinic for immunotherapy and optical imaging purposes. To directly quantify its bispecific binding affinities, ^3H-EC17 was synthesized and radioligand binding assays were carried out on KB and CHO-β cell lines representing FRα+ and FRβ+ target cells, respectively, and on unsorted EGFRt CAR-T cells representing the effector cells.

[1] = EC17 dose finding and CRS assessment in tumor-free mice; format: in vivo, NSG mice
Text: Panel A: Schematic diagram to show dose scheduling of CAR-T cells (˜10 million “clinical facsimile”) plus EC17 dosed 3 different ways in NSG mice without or with pre-established MDA-MB-231 xenografts. Tumor-free mice received EC17 SIW 500 nmol/kg (2 doses on days 2 and 10). Tumor-bearing mice received EC17 as follows: EC17 SIW 500 nmol/kg (5 doses on days 2, 10, 17, 24, and 31), EC17 M/Th/M_Escalation-1 (repeats of 5/50/500 nmol/kg on Monday/Thursday/Monday followed by 1-week break, i,e. on days 2, 6, 10, 17, 20, 24, and 31), or EC17 M/Th/M_Escalation-2 (repeats of 5/100/1000 nmol/kg on Monday/Thursday/Monday followed by 1-week break, i.e. days 2, 6, 10, 17, 20, 24, and 31). Panel B: Systemic levels of human IFNγ on a log 2 scale detected in mouse plasma on days 11 and 12 after CAR-T cell injection in tumor-bearing versus tumor-free mice (i.e., ˜20 and 42 hours after the previous EC17 dose in all treated cohorts). Panel C: Circulating CAR-T cells in mouse blood identified as human CD3ε+ EGFRt+ events by flow cytometry and enumerated per 100 μL of whole blood. Panel D: Measurements of change in body weight and tumor volume in tumor-bearing mice that received CAR-T cells only or CAR-T cells plus EC17 dosed 3 different ways (dashed lines indicated each EC17 dose). n=5 mice per group. All data represent mean±s.e.m. * p<0.05 by one-way ANOVA test. […]

T1 sequence (P15328 25-234): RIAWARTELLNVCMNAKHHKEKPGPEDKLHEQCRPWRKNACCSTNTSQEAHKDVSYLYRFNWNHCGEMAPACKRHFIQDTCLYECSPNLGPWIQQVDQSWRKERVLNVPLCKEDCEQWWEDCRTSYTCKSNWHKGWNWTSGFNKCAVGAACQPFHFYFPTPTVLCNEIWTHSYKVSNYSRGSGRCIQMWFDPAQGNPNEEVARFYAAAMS

Nc1nc2ncc(CNc3ccc(C(=O)N[C@@H](CCC(=O)NCCNC(=S)Nc4ccc(-c5c6ccc(=O)cc-6oc6cc(O)ccc56)c(C(=O)O)c4)C(=O)O)cc3)nc2c(=O)[nH]1 [EC17, FA-(γ)-ethylenediamine-FITC]
Kd (FRα (KB)): 1.7 nM | body weight loss ([1]; tumor-free mice, two weekly doses of EC17 at 500 nmol/kg): no CRS symptoms (grade 0 out of a 0-5 scale) or body weight loss was observed | human IFNγ in mouse plasma ([1]; tumor-free, CAR-T cells plus EC17, days 11 and 12): low levels of IFNγ were detected
